Among the data in US20200131669A1, “CYCLIC PEPTIDE COMPOUND HAVING HIGH MEMBRANE PERMEABILITY, AND LIBRARY CONTAINING SAME” (Chugai Seiyaku Kabushiki Kaisha, priority 2017, published 2020) are Papp A→B values, retold here.

Molecules are shown by their SMILES. Positions of bridges follow the written chain, without caps; N, C: chain ends. Non-standard residues stand in square brackets, D forms with d. Residues, ends and D or L forms follow the SMILES beside them. ξ: configuration not given here. *: point of attachment. NMePhe(4-Cl) = CN[C@@H](Cc1ccc(Cl)cc1)C(=O)O; NMehPhe = CN[C@@H](CCc1ccccc1)C(=O)O; hhPhe = N[C@@H](CCCc1ccccc1)C(=O)O; NMeF = CN[C@@H](Cc1ccccc1)C(=O)O; NMeI = CC[C@H](C)[C@H](NC)C(=O)O; hPhe = N[C@@H](CCc1ccccc1)C(=O)O; NMeL = CN[C@@H](CC(C)C)C(=O)O; ξNMeF = CNC(Cc1ccccc1)C(=O)O; NMeV = CN[C@H](C(=O)O)C(C)C; NMeA = CN[C@@H](C)C(=O)O; Piperidide = C1CCN(*)CC1; NPrGly = CCCNCC(=O)O; X2 = Fc1cncc(C*)c1; Sar = CNCC(=O)O; tBu = CC(C)(C)*

The nature of the first data set: Caco-2 membrane permeability, improved method as used in the following Examples (96-well, 20 to 24 h preincubation). The class given is in vitro ADME. The following applies: human, Caco-2, Caco-2 (cm/sec). A digest of the protocol:
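Papp (cm/sec) was derived from LC/MS of basal samples collected 180 min after apical dosing in FaSSIF/HBSS pH 6.0 with 1% DMSO, against a basal HBSS pH 7.4 receiver containing 4% BSA. Three-week Caco-2 cultures were first preincubated with compound in DMEM+FaSSIF at 37 °C for 20–24 h.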
For the compound `CC(C)C[C@@H]1NC(=O)[C@H](C)N(C)C(=O)C[C@@H](C(=O)N2CCCCC2)NC(=O)[C@H](CC(C)C)N(C)C(=O)CN(C)C(=O)[C@H]([C@@H](C)O)NC(=O)[C@H](CC(C)C)N(C)C(=O)[C@H](Cc2ccc(Cl)cc2)N(C)C(=O)[C@H](C)NC(=O)[C@H](Cc2ccccc2)N(C)C(=O)[C@H](CC(C)C)N(C)C1=O` [pd173] ([NMeA]L[NMeL][NMeF]A[NMePhe(4-Cl)][NMeL]T[Sar][NMeL]D-Piperidide; lactam N-11), the Papp A→B at 180 min worked out at 1.6 ×10⁻⁶ cm/s. Same read-out and setting: for `CC[C@H](C)[C@@H]1NC(=O)[C@H](Cc2ccccc2)N(C)C(=O)CN(C)C(=O)C[C@@H](C(=O)N2CCCCC2)NC(=O)[C@H](C(C)C)N(C)C(=O)[C@H](COC(C)(C)C)NC(=O)[C@H](CC(C)C)N(C)C(=O)[C@H](Cc2ccc(Cl)cc2)N(C)C(=O)CN(C)C(=O)[C@H]([C@@H](C)O)NC(=O)[C@H](CC(C)C)N(C)C1=O` [pd175] ([Sar][NMeF]I[NMeL]T[Sar][NMePhe(4-Cl)][NMeL]S(tBu)[NMeV]D-Piperidide; lactam N-11) the value was 1.1 ×10⁻⁶ cm/s; for `CC[C@H](C)[C@@H]1NC(=O)[C@H](Cc2ccc(Cl)cc2)N(C)C(=O)CN(C)C(=O)C[C@@H](C(=O)N2CCCCC2)NC(=O)[C@H](C(C)C)N(C)C(=O)[C@H](COC(C)(C)C)NC(=O)[C@H](CC(C)C)N(C)C(=O)[C@H](Cc2ccccc2)N(C)C(=O)CN(C)C(=O)[C@H]([C@@H](C)O)NC(=O)[C@H](CC(C)C)N(C)C1=O` [pd176] ([Sar][NMePhe(4-Cl)]I[NMeL]T[Sar][NMeF][NMeL]S(tBu)[NMeV]D-Piperidide; lactam N-11), 1.2 ×10⁻⁶ cm/s. On to `CC(C)C[C@H]1C(=O)N[C@@H](COC(C)(C)C)C(=O)N(C)[C@@H](Cc2ccccc2)C(=O)N(C)[C@@H](C(C)C)C(=O)N[C@H](C(=O)N2CCCCC2)CC(=O)N[C@H](C(C)C)C(=O)N(C)C(Cc2ccccc2)C(=O)N[C@@H](COCc2cncc(F)c2)C(=O)N(C)[C@@H](CC(C)C)C(=O)N[C@@H]([C@@H](C)O)C(=O)N(C)CC(=O)N1C` (stereo partly drawn) [pd180] ([dV][ξNMeF]S(X2)[NMeL]T[Sar][NMeL]S(tBu)[NMeF][NMeV]D-Piperidide; lactam N-11), for which the Papp A→B at 180 min was determined as 2.4 ×10⁻⁶ cm/s. `CC[C@H](C)[C@H]1C(=O)N[C@@H]([C@@H](C)O)C(=O)N(C)CC(=O)N(C)[C@@H](CC(C)C)C(=O)N[C@H](C(=O)N2CCCCC2)CC(=O)N(C)[C@@H](C(C)C)C(=O)N[C@@H](COCc2cncc(F)c2)C(=O)N(C)[C@@H](CC(C)C)C(=O)N(C)[C@@H](Cc2ccccc2)C(=O)N[C@@H](CC(C)C)C(=O)N(C)[C@@H](Cc2ccccc2)C(=O)N1C` [pd181] ([NMeV]S(X2)[NMeL][NMeF]L[NMeF][NMeI]T[Sar][NMeL]D-Piperidide; lactam N-11) returned a Papp A→B at 180 min of 1.1 ×10⁻⁶ cm/s. On the same count and under the same terms, the result for `CC(C)C[C@H]1C(=O)N(C)[C@@H](Cc2ccccc2)C(=O)N[C@@H](COC(C)(C)C)C(=O)N(C)[C@@H](C)C(=O)N[C@H](C(=O)N2CCCCC2)CC(=O)N(C)[C@@H](C)C(=O)N(C)[C@@H](Cc2ccccc2)C(=O)N[C@@H](CCc2ccccc2)C(=O)N(C)[C@@H](CC(C)C)C(=O)N[C@@H]([C@@H](C)O)C(=O)N(C)CC(=O)N1C` [pd183] ([NMeA][NMeF][hPhe][NMeL]T[Sar][NMeL][NMeF]S(tBu)[NMeA]D-Piperidide; lactam N-11) reads 2.1 ×10⁻⁶ cm/s. As to `CC(C)C[C@H]1C(=O)N(C)[C@@H](CCc2ccccc2)C(=O)N[C@@H](COC(C)(C)C)C(=O)N(C)[C@@H](C)C(=O)N[C@H](C(=O)N2CCCCC2)CC(=O)N(C)[C@@H](C)C(=O)N(C)[C@@H](Cc2ccccc2)C(=O)N[C@@H](CCc2ccccc2)C(=O)N(C)[C@@H](CC(C)C)C(=O)N[C@@H]([C@@H](C)O)C(=O)N(C)CC(=O)N1C` [pd184] ([NMeA][NMeF][hPhe][NMeL]T[Sar][NMeL][NMehPhe]S(tBu)[NMeA]D-Piperidide; lactam N-11), the Papp A→B at 180 min was found to be 1.2 ×10⁻⁶ cm/s. Still for that read-out and setting: for `CC(C)C[C@H]1C(=O)N[C@@H](COC(C)(C)C)C(=O)N(C)[C@@H](Cc2ccccc2)C(=O)N(C)[C@@H](C)C(=O)N[C@H](C(=O)N2CCCCC2)CC(=O)N[C@H](C(C)C)C(=O)N(C)[C@@H](Cc2ccccc2)C(=O)N[C@@H](CCCc2ccccc2)C(=O)N(C)[C@@H](CC(C)C)C(=O)N[C@@H]([C@@H](C)O)C(=O)N(C)CC(=O)N1C` [pd192] ([dV][NMeF][hhPhe][NMeL]T[Sar][NMeL]S(tBu)[NMeF][NMeA]D-Piperidide; lactam N-11) the value was 1.1 ×10⁻⁶ cm/s; for `CC(C)C[C@H]1C(=O)N[C@@H](CCCc2ccccc2)C(=O)N(C)[C@@H](Cc2ccccc2)C(=O)N(C)[C@@H](C(C)C)C(=O)N[C@H](C(=O)N2CCCCC2)CC(=O)N[C@H](C)C(=O)N(C)C(Cc2ccccc2)C(=O)N[C@@H](C(C)C)C(=O)N(C)[C@@H](CC(C)C)C(=O)N[C@@H]([C@@H](C)O)C(=O)N(C)CC(=O)N1C` (stereo partly drawn) [pd193] ([dA][ξNMeF]V[NMeL]T[Sar][NMeL][hhPhe][NMeF][NMeV]D-Piperidide; lactam N-11), 1 ×10⁻⁶ cm/s. The same measure, in the same setting: the result for `CCCN1CC(=O)N(C)[C@@H](CC(C)C)C(=O)N[C@@H](COC(C)(C)C)C(=O)N(C)[C@@H](Cc2ccccc2)C(=O)N(C)[C@@H](Cc2ccccc2)C(=O)N[C@H](C(=O)N2CCCCC2)CC(=O)N[C@H](C)C(=O)N(C)[C@@H](Cc2ccccc2)C(=O)N[C@@H](C(C)C)C(=O)N(C)[C@@H](CC(C)C)C(=O)N[C@@H]([C@@H](C)O)C1=O` [pd194] ([dA][NMeF]V[NMeL]T[NPrGly][NMeL]S(tBu)[NMeF][NMeF]D-Piperidide; lactam N-11) reads 5.3 ×10⁻⁶ cm/s; that for `CCCN1CC(=O)N(C)[C@@H](Cc2ccccc2)C(=O)N[C@@H]([C@@H](C)CC)C(=O)N(C)[C@@H](Cc2ccccc2)C(=O)N[C@@H]([C@@H](C)O)C(=O)N(C)CC(=O)N(C)[C@@H](Cc2ccccc2)C(=O)N(C)[C@@H](CC(C)C)C(=O)N[C@@H](COC(C)(C)C)C(=O)N(C)[C@@H](C(C)C)C(=O)N[C@H](C(=O)N2CCCCC2)CC1=O` [pd195] ([NPrGly][NMeF]I[NMeF]T[Sar][NMeF][NMeL]S(tBu)[NMeV]D-Piperidide; lactam N-11), 5 ×10⁻⁶ cm/s.

Staying with this data set, now noted: human, Caco-2, improved method, preincubation 20 to 24 hours; Papp, sample at 180 minutes; read-out: Caco-2.
As to `CC(C)C[C@@H]1NC(=O)[C@H](Cc2ccc(Cl)cc2)N(C)C(=O)[C@H](CC(C)C)N(C)C(=O)[C@H](C(C)C)NC(=O)[C@H](C)N(C)C(=O)C[C@@H](C(=O)N2CCCCC2)NC(=O)[C@H](CC(C)C)N(C)C(=O)CN(C)C(=O)[C@H]([C@@H](C)O)NC(=O)[C@H](CC(C)C)N(C)C(=O)[C@H](Cc2ccccc2)N(C)C1=O` [pd174] ([NMeA]V[NMeL][NMePhe(4-Cl)]L[NMeF][NMeL]T[Sar][NMeL]D-Piperidide; lactam N-11), the Papp A→B at 180 min is 1.3 ×10⁻⁶ cm/s.
